We go through one compound from patent publication US12492214B2, “Solid state forms of Risdiplam and process for preparation thereof” (ASSIA CHEMICAL INDUSTRIES LTD., priority 2019, dated 2025).

Each structure is given as a SMILES string.

The data set in a line: Stability of the solid form under mass pressure. In kind it is physicochemical. Particulars: mass pressure of 1 ton for 3 minutes. The protocol:
Form 3 is characterized by needle to ‘rod-like’ morphology. This morphology may be beneficial for flowability properties. In addition, Form 3 is found to be stable under mass pressure of 1 ton for 3 minutes.

Consider `Cc1cn2nc(-c3cc(=O)n4cc(N5CCNC6(CC6)C5)ccc4n3)cc(C)c2n1` [Form 3, 7-(4,7-diazaspiro[2.5]octan-7-yl)-2-(2,8-dimethylimidazo[1,2-b]pyridazin-6-yl)-4H-pyrido[1,2-a]pyrimidin-4-one], for which the “stability under mass pressure” value was “stable”.
